According to patent US20040029965A1, “Formulations for reducing or eliminating toxicity of enviromental hormones containing ursodeoxycholic acid” (priority 2000, published 2004):

Tests used:
Format in all cases: in vivo
[1] = system: C57B1/6J mice; experiment: Organ weights (liver, kidneys, testes, epididymides) of mice after a single subcutaneous injection of TCDD
Procedure: Male C57B1/6J mice of 5 weeks old having the average weight of 18-22 g which had been bred in CRJ (Charles River in Japan) were purchased and used in this example as experimental animals. Those mice were acclimated under the constant breeding condition, i.e. the temperature of 24±1° C., the humidity of 60±10% and the light and darkness cycle of 12 hours, for one week and thereafter, utilized in the experiment.
(§1) 2,3,7,8-tetrachlorodibenzo-p-dioxin (TCDD) dissolved in toluene (purity of 95% or more as a result of gas chromatography analysis), manufactured by Chem. Services Inc. in USA, was volatilized with nitrogen to obtain powder. The obtained powder was dissolved in a mixed solvent containing acetone and corn oil with a volume ratio of 1:6. The resulting solution each containing 110, 27.5 and 6.9 μg/kg of TCDD was subcutaneously injected to mice at a volume of 5 ml per body weight. […] The mice were supplied with the feed from 10 days before (pre-administration) to 60 days after administration of TCDD (post-administration).
(§2) Upon completion of the experiment for 60 days, the experimental animals were fasted for 24 hours and anesthetized with ether. Then, they were abdominally incised and blood was gathered from abdominal vena cava. They were sacrificed by the release of blood. Liver, kidneys, testes and epididymides were extracted and all the extracted organs were weighed. Only the testes were separately kept and observed under optical and electron microscopes. For biochemical finding test, serum was separated from blood with a centrifuge and the separated serum was analyzed with an automated blood biochemical analyzer, Dimension (Dupont, USA). Blood was put to another blood gathering bottle and then, analyzed with an automated blood cell analyzer, Celldyn (Abbott, USA).
The results are expressed as Mean±Standard Deviation values. For statistical analysis of the body weight, feed and water uptake, biochemical findings, hematological findings and the weight of organ in an acute toxicity test, verification was performed by one way analysis of variance (ANOVA) in case of equal distribution. In case significance was recognized in ANOVA, the Student's t-test was performed in the levels of p<0.05 and p<0.01.
The organs, i.e. liver, kidneys, testes and epididymides, were weighed and the results are shown in the following.

[2] = system: C57B1/6J mice; experiment: Johnsen's score of the testis tissue (level of spermatogenesis)
Procedure: as §1, §2
The extracted testes were fixed in 10% neutralized formalin buffer for 24 hours and washed with the flowing water. It was subsequently dehydrated with ethanol and cleared with xylene and then, embedded with paraffin. It was sectioned with microtome (microm is HM 440E) to a thickness of 2-3 μm and then, double stained with hematoxylin and eosin to observe under an optical microscope.
For evaluation of the level of spermatogenesis, Johnsen's score was determined from 10 to 1 based on the presence or absence of principal cells arranged according to maturation of spermatogenesis. The basis of Johnsen's score in testes was the following:
10: Perfect spermatogenesis having many sperms, organization of embryonic epithelial cells with a constant thickness, and opened lumen
9: Despite many sperms, significant separation of embryonic epithelial cells from the basement membrane and disruption thereof, or loss of lumen
8: Presence of 5 to less than 10 sperms in the section
7: Many sperm cells without sperms
6: 5 to less than 10 sperm cells without sperms
5: Several or many spermatocytes without sperms and sperm cells
4: Less than 5 spermatocytes without sperms and sperm cells
3: Presence of only spermatogonia as reproductive cells
2: Presence of only Sertoli cells without any reproductive cells
1: No cells in the section of seminiferous tubules

[3] = system: C57B1/6J mice; experiment: Electron microscopy of testes (cellular microstructures); conditions: TCDD 27.5 μg/kg + 0.5% by weight of UDCA; FIG. 10
Procedure: as §1
as §2, with “(Abbott, USA). […]” for “(Abbott, USA).”

[4] = TCDD 27.5 μg/kg + UDCA 0.25 wt %
[5] = TCDD 27.5 μg/kg + UDCA 0.5 wt %
[6] = TCDD 110.0 μg/kg + UDCA 0.125 wt %
[7] = TCDD 110.0 μg/kg + UDCA 0.25 wt %
[8] = TCDD 110.0 μg/kg + UDCA 0.5 wt %

C[C@H](CCC(=O)O)[C@H]1CC[C@H]2[C@@H]3[C@@H](O)C[C@@H]4C[C@H](O)CC[C@]4(C)[C@H]3CC[C@]12C [UDCA, 3α, 7β-dihydroxy-5β-cholanoic acid]
Left kidney Weight [1, 4]: 0.125 ± 0.010 g | Left testis Relative weight [1, 4]: 0.293 ± 0.032 % | Left testis Weight [1, 4]: 0.072 ± 0.007 g | Liver Relative weight [1, 4]: 4.428 ± 0.198% | Liver Weight [1, 4]: 1.088 ± 0.030 g | Right epididymis Relative weight [1, 4]: 0.124 ± 0.020% | Right epididymis Weight [1, 4]: 0.030 ± 0.005 g | Right kidney Relative weight [1, 4]: 0.508 ± 0.029 % | Right kidney Weight [1, 4]: 0.125 ± 0.007 g | Right testis Relative weight [1, 4]: 0.290 ± 0.030 % | Right testis Weight [1, 4]: 0.071 ± 0.007 g | Left epididymis Relative weight [1, 5]: 0.115 ± 0.015% | Left epididymis Weight [1, 5]: 0.025 ± 0.004 g | Left kidney Relative weight [1, 5]: 0.539 ± 0.040 % | Left kidney Weight [1, 5]: 0.119 ± 0.011 g | Left testis Relative weight [1, 5]: 0.304 ± 0.040 % | Left testis Weight [1, 5]: 0.067 ± 0.011 g | Liver Relative weight [1, 5]: 4.773 ± 0.250% | Liver Weight [1, 5]: 1.057 ± 0.069 g | Right epididymis Relative weight [1, 5]: 0.132 ± 0.041% | Right epididymis Weight [1, 5]: 0.029 ± 0.011 g | Right kidney Relative weight [1, 5]: 0.538 ± 0.045 % | Right kidney Weight [1, 5]: 0.119 ± 0.009 g | Right testis Relative weight [1, 5]: 0.301 ± 0.030 % | Right testis Weight [1, 5]: 0.067 ± 0.007 g | Liver Relative weight [1, 6]: 5.118% | Liver Weight [1, 6]: 0.8153 g | Left epididymis Relative weight [1, 7]: 0.122% | Left epididymis Weight [1, 7]: 0.0195 g | Left kidney Relative weight [1, 7]: 0.6711% | Left kidney Weight [1, 7]: 0.1069 g | Left testis Relative weight [1, 7]: 0.2153% | Left testis Weight [1, 7]: 0.343 g | Liver Relative weight [1, 7]: 8.600 ± 3.276% | Liver Weight [1, 7]: 1.379 ± 0.327 g | Right epididymis Relative weight [1, 7]: 0.080% | Right epididymis Weight [1, 7]: 0.0128 g | Right kidney Relative weight [1, 7]: 0.6045% | Right kidney Weight [1, 7]: 0.0963 g | Right testis Relative weight [1, 7]: 0.2279% | Left epididymis Relative weight [1, 8]: 0.114 ± 0.025% | Left epididymis Weight [1, 8]: 0.021 ± 0.007 g | Left kidney Relative weight [1, 8]: 0.704 ± 0.199% | Left kidney Weight [1, 8]: 0.121 ± 0.022 g | Left testis Relative weight [1, 8]: 0.316 ± 0.074% | Left testis Weight [1, 8]: 0.057 ± 0.019 g | Right epididymis Relative weight [1, 8]: 0.127 ± 0.024% | Right epididymis Weight [1, 8]: 0.024 ± 0.009 g | Right kidney Relative weight [1, 8]: 0.659 ± 0.133% | Right kidney Weight [1, 8]: 0.113 ± 0.010 g | Right testis Relative weight [1, 8]: 0.314 ± 0.067% | Right testis Weight [1, 8]: 0.057 ± 0.019 g | Johnsen's score of the testis tissue ([2]; TCDD 6.9 μg/kg + UDCA 0.125 wt % in feed): 8.7 ± 0.09 | Johnsen's score of the testis tissue ([2]; TCDD 6.9 μg/kg + UDCA 0.250 wt % in feed): 8.84 ± 0.10 | Johnsen's score of the testis tissue ([2]; TCDD 6.9 μg/kg + UDCA 0.500 wt % in feed): 9.10 ± 0.08 | Johnsen's score of the testis tissue ([2]; TCDD 27.5 μg/kg + UDCA 0.125 wt % in feed): 8.40 ± 0.10 | Johnsen's score of the testis tissue ([2]; TCDD 27.5 μg/kg + UDCA 0.250 wt % in feed): 8.42 ± 0.08 | Johnsen's score of the testis tissue ([2]; TCDD 27.5 μg/kg + UDCA 0.500 wt % in feed): 8.81 ± 0.07 | heads of sperms, electron microphotograph [3]: Normal shapes of sperm heads were retained
